According to US11766470B2, “Manufacture, formulation and dosing of apraglutide” (VectivBio AG, priority 2020, dated 2023):
Square brackets hold non-standard residues; d marks the D form. Peptide text beside a SMILES is read from it. ξ: configuration not given here. Ile(3ξ) = CCC(C)[C@H](N)C(=O)O; Thr(3ξ) = CC(O)[C@H](N)C(=O)O; Nle = CCCC[C@H](N)C(=O)O

Tested on: patients with SBS-IF
Assay: Phase 2 placebo-controlled crossover trial in SBS-IF patients (Example 5): urine output, urine sodium, PS volume, oral fluid intake, hydration parameters, plasma L-citrulline, body composition
Type: in vivo, human
Settings: for Fluid composite effect (increase urine production + reduction PS volume + reduction oral fluid intake): post-hoc
Procedure: The following non-limiting example describes results from a Phase 2 clinical trial in which subjects with SBS-IF were treated with the apraglutide formulations of the present disclosure. This Phase 2 trial investigated the safety and efficacy of 5 and 10 mg apraglutide in patients with SBS-IF.
Eight adult patients with SBS-IF were treated with apraglutide compositions of the present disclosure according to Table 6. Briefly, patients with SBS-IF were administered 5 mg apraglutide of the present disclosure or placebo once a week for four weeks. The patients were then administered 10 mg apraglutide of the present disclosure once a week for four weeks. Additionally, there was a washout period of 6-10 weeks between treatments.
The trial described in Example 5 was a double-blind, crossover, randomized, placebo-controlled, phase 2 trial followed by an additional treatment period in an open-label regimen. Eight adult patients (aged ≥18 to ≤80 years) with SBS-IF were enrolled in the trial. Patient eligibility was assessed during a screening visit. The main inclusion criteria were: Patients with SBS secondary to surgical resection of the small bowel with a jejuno- or ileostomy, at least 6 months since last bowel resection, a fecal output of at least 1500 g/day as recorded within the last 18 months, and PS-infusions≥3 times per week for ≥12 months according to the patient's medical record. Patients were excluded, if they had clinical signs of activity in inflammatory bowel disease, a history of cancer within ≤5 years or an inadequate hepatic, kidney, or heart function. Patients were also excluded, if they had received native GLP-2 or a GLP-2 analogue within the last 3 months.
The procedures during each treatment period were consistent.
Efficacy assessments were performed for each treatment period of 29 days. Patients received a paper diary for recording PS volume administration, urine collections and oral fluid intakes at specific time points. Patients performed home 48-hour urine collections at baseline (day −2 to 1), immediately after first treatment injection (day 1 to 3), and at the end of the treatment period (day 27-29, […] after the fourth administration of the trial drug). Urine was collected by the patient in a urine container with volume markings and 48-hour urine volumes were reported in the diary. After completing the 48-hour collection, patients transferred approximately 100 mL of urine from the container to a sample which was delivered at the next patient visit. The amount of sodium excreted per 48 hours was then calculated as the concentration of sodium in the sample multiplied by the total volume of urine collected. During each urine collection, weekly PS volume and content and daily oral fluid intake were kept constant. Since they were kept constant, increases in urine volume were a sign of increased fluid absorption. […] Patients were to adhere to their drinking menu during each urine collection and the concomitant 48-hour oral fluid intake was reported in the diary during each urine collection.
On day 20-22, patients were informed to record their spontaneous oral fluid intake during 48 hours. This measurement was included to investigate whether increased intestinal absorption was associated with a decrease in their spontaneous oral fluid intake.
Between day 4 and 24, PS volume reductions were allowed if deemed clinically necessary by the investigator. […] PS volume reductions were assessed during day 20-22. Patients returned to their baseline PS volume and content during the end of the treatment urine collection (day 27-29). Concomitant medications including proton-pump inhibitors, loperamide, and opiates were kept unchanged and stable throughout the trial. If necessary, adjustments could be made in the drinking menu and prescribed PS volume and content between treatment periods based on discussions between the patient and the investigator.
Body weight was measured using a levelled platform scale. […]

[1] = 5 mg vs placebo, Part A+B, end of treatment
[2] = 5 mg vs placebo, Part A, day 1-3 after first injection
[3] = 5 mg vs placebo, Part A, day 20-22
[4] = 5 mg vs placebo, Part A, day 27-29
[5] = 5 mg vs placebo, Part A, end of treatment
[6] = 10 mg vs placebo, Part A+B, day 1-3 after first injection
[7] = 10 mg vs placebo, Part A+B, day 20-22
[8] = 10 mg vs placebo, Part A+B, day 27-29
[9] = 10 mg vs placebo, Part A+B, end of treatment

Which results are given for CCCC[C@H](NC(=O)[C@H](CCC(=O)O)NC(=O)[C@H](CC(=O)O)NC(=O)[C@H](CO)NC(=O)[C@H](Cc1ccccc1)NC(=O)[C@H](CO)NC(=O)CNC(=O)[C@H](CC(=O)O)NC(=O)CNC(=O)[C@@H](N)Cc1c[nH]cn1)C(=O)N[C@H](Cc1ccccc1)C(=O)N[C@H](C(=O)N[C@H](C(=O)N[C@@H](CC(C)C)C(=O)N[C@@H](CC(=O)O)C(=O)N[C@@H](CC(C)C)C(=O)N[C@@H](CC(C)C)C(=O)N[C@@H](C)C(=O)N[C@@H](C)C(=O)N[C@@H](CCCNC(=N)N)C(=O)N[C@@H](CC(=O)O)C(=O)N[C@@H](Cc1ccccc1)C(=O)N[C@H](C(=O)N[C@@H](CC(N)=O)C(=O)N[C@@H](Cc1c[nH]c2ccccc12)C(=O)N[C@@H](CC(C)C)C(=O)N[C@H](C(=O)N[C@@H](CCC(N)=O)C(=O)N[C@H](C(=O)N[C@@H](CCCCN)C(=O)N[C@H](C(=O)N[C@H](C(=O)N[C@@H](CC(=O)O)C(N)=O)C(C)O)C(C)CC)C(C)O)C(C)CC)C(C)CC)C(C)CC)C(C)O (stereo partly drawn) [apraglutide, L-histidyl-glycyl-L-aspartyl-glycyl-L-seryl-L-phenylalanyl-L-seryl-L-aspartyl-L-glutamyl-L-norleucyl-D-phenylalanyl-L-threonyl-Lisoleucyl-L-leucyl-L-aspartyl-L-leucyl-L-leucyl-L-alanyl-L-alanyl-L-arginyl-L-aspartyl-L-phenylalanyl-L-isoleucyl-L-asparaginyl-Ltryptophanyl-L-leucyl-L-isoleucyl-L-glutaminyl-L-threonyl-L-lysyl-L-isoleucyl-L-threonyl-Laspartic acid amide] (H-HGDGSFSDE[Nle][dF][Thr(3ξ)][Ile(3ξ)]LDLLAARDF[Ile(3ξ)]NWL[Ile(3ξ)]Q[Thr(3ξ)]K[Ile(3ξ)][Thr(3ξ)]D-NH2)?
Relative body weight, adjusted mean change from baseline [1]: 3 (0 to 6); %; Relative bone mineral content, adjusted mean change from baseline [1]: 0 (−3 to 3); %; Relative fat body mass, adjusted mean change from baseline [1]: 10 (1 to 18); %; Relative lean body mass, adjusted mean change from baseline [1]: 2 (−5 to 9); %; Relative plasma L-citrulline, adjusted mean change from baseline [1]: 65 (15 to 115); %; Urea, adjusted mean change from baseline [1]: −0.9 (−2.4 to 0.6); mmol/L; Absolute urine output, adjusted mean change from baseline [2]: −48 (−696 to 601); mL/day; Relative urine output, adjusted mean change from baseline [2]: 5 (−38 to 48); %; Urine sodium excretion (%), adjusted mean change from baseline [2]: 64 (−306 to 433); %; Urine sodium excretion, adjusted mean change from baseline [2]: 3 (−146 to 152); mmol/day; PS volume, adjusted mean change from baseline [3]: −94 (−344 to 156); P = .356 mL/day; Relative PS volume, adjusted mean change from baseline [3]: −13 (−41 to 15); P = .276%; Relative oral fluid intake, adjusted mean change from baseline [3]: −9 (−18 to 1); P = .068%; Absolute urine output, adjusted mean change from baseline [4]: 714 mL/day; Relative urine output, adjusted mean change from baseline [4]: 49%; Urine sodium excretion (%), adjusted mean change from baseline [4]: 189 (−350 to 729); P = .270%; Urine sodium excretion, adjusted mean change from baseline [4]: 66 (−69 to 201); P = .171 mmol/day; Body weight, adjusted mean change from baseline [5]: 1.9 (−0.8 to 4.5); kg; Bone mineral content, adjusted mean change from baseline [5]: −4 (−132 to 123); g; Fat body mass, adjusted mean change from baseline [5]: 1.74 (−0.36 to 3.83); kg; Lean body mass, adjusted mean change from baseline [5]: 0.49 (−4.65 to 5.64); kg; Plasma L-citrulline, adjusted mean change from baseline [5]: 17.7 (−6.3 to 41.7); μmol/L; Relative body weight, adjusted mean change from baseline [5]: 3 (−1 to 7); %; Relative bone mineral content, adjusted mean change from baseline [5]: 0 (−6 to 6); %; Relative fat body mass, adjusted mean change from baseline [5]: 9 (−5 to 24); %; Relative lean body mass, adjusted mean change from baseline [5]: 2 (−11 to 15); %; Relative plasma L-citrulline, adjusted mean change from baseline [5]: 66 (−13 to 145); %; Fluid composite effect (increase urine production + reduction PS volume + reduction oral fluid intake) (5 mg vs placebo, Part A+B): 1,036 mL/day; Absolute urine output, adjusted mean change from baseline [6]: −64 (−500 to 372); mL/day; Relative urine output, adjusted mean change from baseline [6]: −6 (−37 to 24); %; Urine sodium excretion (%), adjusted mean change from baseline [6]: 22 ( −75 to 119); %; Urine sodium excretion, adjusted mean change from baseline [6]: 3 (−17 to 22); mmol/day; Relative PS volume, adjusted mean change from baseline [7]: −28 (−51 to −4); %; Relative oral fluid intake, adjusted mean change from baseline [7]: −15 (−25 to −5); %; Absolute urine output, adjusted mean change from baseline [8]: 795 (195 to 1,394); mL/day; Relative urine output, adjusted mean change from baseline [8]: 34 (−4 to 71); %; Urine sodium excretion (%), adjusted mean change from baseline [8]: 432 ( −87 to 951); %; Urine sodium excretion, adjusted mean change from baseline [8]: 88 (20 to 156); mmol/day; Albumin, adjusted mean change from baseline [9]: 1.0 (−0.9 to 2.9); g/L; Body weight, adjusted mean change from baseline [9]: 1.3 (−0.6 to 3.2); kg; Bone mineral content, adjusted mean change from baseline [9]: 8 (−64 to 81); g; CO2 total, adjusted mean change from baseline [9]: 1.3 (−1.1 to 3.7); mmol/L; Creatinine, adjusted mean change from baseline [9]: −5.1 (−22.1 to 11.9); umol/L; Fat body mass, adjusted mean change from baseline [9]: 0.33 (−1.20 to 1.85); kg; Hematocrit, adjusted mean change from baseline [9]: 0.2 (−0.7 to 1.0); vol/fr; Lean body mass, adjusted mean change from baseline [9]: 0.76 (−2.47 to 3.99); kg; Plasma L-citrulline, adjusted mean change from baseline [9]: 14.0 (−2.3 to 30.3); μmol/L; Protein, adjusted mean change from baseline [9]: −0.7 (−4.7 to 3.3); g/L; Relative body weight, adjusted mean change from baseline [9]: 2 (−1 to 5); %; Relative bone mineral content, adjusted mean change from baseline [9]: 0 (−3 to 3); %; Relative fat body mass, adjusted mean change from baseline [9]: 2 (−7 to 11); %; Relative lean body mass, adjusted mean change from baseline [9]: 2 (−6 to 9); %; Relative plasma L-citrulline, adjusted mean change from baseline [9]: 42 (−10 to 94); %; Urea, adjusted mean change from baseline [9]: −0.6 (−2.2 to 1.0); mmol/L; Fluid composite effect (increase urine production + reduction PS volume + reduction oral fluid intake) (10 mg vs placebo, Part A+B): 1,630 mL/day
